The values that follow come from patent publication US9751874B2, “Hydroxy containing FXR (NR1H4) modulating compounds” (Gilead Sciences, Inc., priority 2014, dated 2017).

In experiment [1] the target is T1, human FXR alpha ligand binding domain (Homo sapiens, UniProt Q96RI1).
T1 construct: made in house; host or cells: E. coli BL21(DE3), vector pDEST15
T1 sequence (Q96RI1 187-472 isoform Q96RI1-2): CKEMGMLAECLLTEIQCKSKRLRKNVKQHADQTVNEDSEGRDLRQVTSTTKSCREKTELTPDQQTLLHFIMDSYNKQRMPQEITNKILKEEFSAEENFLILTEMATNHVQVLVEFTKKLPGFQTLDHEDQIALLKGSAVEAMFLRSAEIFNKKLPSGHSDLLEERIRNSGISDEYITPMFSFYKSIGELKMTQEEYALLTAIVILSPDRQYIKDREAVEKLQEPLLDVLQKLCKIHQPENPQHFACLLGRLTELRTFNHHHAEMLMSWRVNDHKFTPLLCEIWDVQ
Kind of experiment: FRET activity assay (ligand mediated cofactor peptide interaction, LANCE). The class given is biochemical. The settings on record: GST-FXR-LBD / biotinylated SRC-1 peptide (676-700), read-out: F EC50. A digest of the protocol: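 GST-tagged FXR LBD (aa 187–472, E. coli-expressed) at 20–60 ng/well with 200–600 nM biotinylated SRC-1 peptide (676–700), streptavidin-APC and Eu anti-GST in Tris pH 7.5 buffer, 1% DMSO, equilibrated 1 h dark at room temperature. TR-FRET read as 665/615 nm ratio; agonists raise signal above basal.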
(In general: Time-resolved FRET reads energy transfer from a long-lived donor to a nearby acceptor.)

Experiment [2] concerns the target T2, FXR ligand binding domain (Homo sapiens, UniProt Q96RI1).
T2 construct: expressed in transfected cells; host or cells: HEK293 cells, transiently transfected with pCMV-BD-FXR-LBD, pFR-Luc and pRL-CMV
T2 sequence (Q96RI1 187-472 isoform Q96RI1-2): T1 sequence (Q96RI1 187-472 isoform Q96RI1-2)
Briefly: Mammalian One Hybrid (M1H) assay, Gal4 promoter driven transactivation in HEK293 cells. In kind it is cell-based. The settings on record: Gal4-FXR-LBD luciferase reporter, 16 h. A digest of the protocol: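 HEK293 cells were transiently co-transfected with Gal4-DBD fused to the human FXR LBD (aa 187-472, NM_005123), a 5×GAL4-site firefly luciferase reporter and CMV-Renilla control. Compounds were added 2-4 h post-transfection (vehicle ≤0.1%) in charcoal/dextran-stripped FBS medium for 16 h. Firefly and Renilla luciferase were read sequentially, in triplicate.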
Background: In a reporter assay the amount or activity of a reporter protein is the signal.

Counter-ions that a name gives are not always drawn.

On to `O=C(O)c1ccc2nc([C@]3(O)CC[C@@H](OCc4c(C5CC5)cnn4-c4ccccc4OC(F)F)CC3)sc2c1` [Example 11-17, 2-((1s,4s)-4-((4-Cyclopropyl-1-(2-(difluoromethoxy)phenyl)-1H-pyrazol-5-yl)methoxy)-1-hydroxycyclohexyl)benzo[d]thiazole-6-carboxylic acid], for which the half-maximal effective concentration (EC50) was 980 nM in experiment [1] and 1800 nM in experiment [2].

`Cc1onc(-c2c(Cl)cccc2Cl)c1CO[C@H]1C[C@H]2CC[C@@H](C1)[C@]2(O)c1nc2ccc(C(=O)O)cc2s1` [Example 11-38, 2-((1R,3r,5S,8r)-3-((3-(2,6-Dichlorophenyl)-5-methylisoxazol-4-yl)methoxy)-8-hydroxybicyclo[3.2.1]octan-8-yl)benzo[d]thiazole-6-carboxylic acid]: the EC50 was found to be 270 nM in experiment [1] and 460 nM in experiment [2].

Turning to `Cc1onc(-c2c(Cl)cccc2Cl)c1CO[C@@H]1C[C@H]2CC[C@@H](C1)[C@]2(O)c1nc2ccc(C(=O)O)cc2s1` [Example 11-37, 2-((1R,3s,5S,8r)-3-((3-(2,6-Dichlorophenyl)-5-methylisoxazol-4-yl)methoxy)-8-hydroxybicyclo[3.2.1]octan-8-yl)benzo[d]thiazole-6-carboxylic acid], the results for the EC50 in experiment [1] and in experiment [2] were 8.8 nM and 43 nM, respectively.

For `O=C(O)Cc1ccc([C@]2(O)CC[C@@H](OCc3c(-c4c(Cl)cccc4Cl)noc3C3CC3)CC2)c(F)c1` [Example 11-8, 2-(4-((1s,4s)-4-((5-Cyclopropyl-3-(2,6-dichlorophenyl)isoxazol-4-yl)methoxy)-1-hydroxycyclohexyl)-3-fluorophenyl)acetic acid], the figures for the EC50 in experiment [1] and in experiment [2] were 8000 nM and greater than 3000 nM, respectively.

In the case of `O=C(NCCS(=O)(=O)O)c1cc(F)c2nc([C@]3(O)[C@@H]4CC[C@H]3C[C@H](OCc3c(-c5c(Cl)cccc5Cl)noc3C3CC3)C4)sc2c1` [Example 39, 2-(2-((1R,3s,5S,8r)-3-((5-Cyclopropyl-3-(2,6-dichlorophenyl)isoxazol-4-yl)methoxy)-8-hydroxybicyclo[3.2.1]octan-8-yl)-4-fluorobenzo[d]thiazole-6-carboxamido)ethanesulfonic acid, ammonia salt], the EC50 in experiment [1] worked out at 3.2 nM; in experiment [2] it was 760 nM.

As for `O=c1nc(-c2cc(F)c3nc([C@]4(O)[C@@H]5CC[C@H]4C[C@H](OCc4c(-c6c(Cl)cccc6Cl)noc4C4CC4)C5)sc3c2)[nH]o1` [Example 36, 3-(2-((1R,3s,5S,8r)-3-((5-Cyclopropyl-3-(2,6-dichlorophenyl)isoxazol-4-yl)methoxy)-8-hydroxybicyclo[3.2.1]octan-8-yl)-4-fluorobenzo[d]thiazol-6-yl)-1,2,4-oxadiazol-5(2H)-one], the EC50 came out at 4.6 nM in experiment [1] and 37 nM in experiment [2].

Regarding `O=C(O)c1cc(F)c2nc(C3(O)C[C@H]4CC(OCc5c(-c6c(Cl)cccc6Cl)noc5C5CC5)C[C@H]4C3)sc2c1` (stereo partly drawn) [Example 11-46, 2-((3aR,6aS)-5-((5-Cyclopropyl-3-(2,6-dichlorophenyl)isoxazol-4-yl)methoxy)-2-hydroxyoctahydropentalen-2-yl)-4-fluorobenzo[d]thiazole-6-carboxylic acid], the EC50 in experiment [1] came out at 44 nM; in experiment [2] it was 180 nM.

With `O[C@]1(c2nc3c(F)cc(-c4nnn[nH]4)cc3s2)CC[C@H](OCc2c(-c3c(Cl)cccc3Cl)noc2C2CC2)CC1` [Example 21, (1s,4s)-4-((5-Cyclopropyl-3-(2,6-dichlorophenyl)isoxazol-4-yl)methoxy)-1-(4-fluoro-6-(1H-tetrazol-5-yl)benzo[d]thiazol-2-yl)cyclohexanol], the EC50 in experiment [1] turned out to be 64 nM; in experiment [2], 1700 nM.

Regarding `OCc1ccc(F)c([C@]2(O)CC[C@@H](OCc3c(-c4c(Cl)cccc4Cl)noc3C3CC3)CC2)c1` [Example 9-7, (1s,4s)-4-((5-Cyclopropyl-3-(2,6-dichlorophenyl)isoxazol-4-yl)methoxy)-1-(2-fluoro-5-(hydroxymethyl)phenyl)cyclohexanol], the results for the EC50 in experiment [1] and in experiment [2] were 110 nM and 150 nM, respectively.

On to `O=C(O)CNC(=O)c1cc(F)c2nc([C@]3(O)[C@@H]4CC[C@H]3C[C@H](OCc3c(-c5c(Cl)cccc5Cl)noc3C3CC3)C4)sc2c1` [Example 38, 2-(2-((1R,3s,5S,8r)-3-((5-Cyclopropyl-3-(2,6-dichlorophenyl)isoxazol-4-yl)methoxy)-8-hydroxybicyclo[3.2.1]octan-8-yl)-4-fluorobenzo[d]thiazole-6-carboxamido)acetic acid], for which the 50% effective concentration (EC50) in experiment [1] came to 3 nM; in experiment [2], 1270 nM.

As to `CC(C)n1nc(C(=O)O)c2ccc([C@]3(O)CC[C@@H](OCc4c(-c5c(Cl)cccc5Cl)noc4C4CC4)CC3)cc21` [Example 11-45, 6-((1s,4s)-4-((5-Cyclopropyl-3-(2,6-dichlorophenyl)isoxazol-4-yl)methoxy)-1-hydroxycyclohexyl)-1-isopropyl-1H-indazole-3-carboxylic acid], the figures for the 50% effective concentration (EC50) in experiment [1] and in experiment [2] were 7 nM and 140 nM, respectively.

On to `CC1(C)C[C@@H](OCc2c(-c3c(Cl)cccc3Cl)noc2C2CC2)CC[C@]1(O)c1nc2c(F)cc(C(=O)O)cc2s1` (racemic) [Example 11-32, 2-((1R,4S)-4-((5-Cyclopropyl-3-(2,6-dichlorophenyl)isoxazol-4-yl)methoxy)-1-hydroxy-2,2-dimethylcyclohexyl)-4-fluorobenzo[d]thiazole-6-carboxylic acid], for which the concentration giving a half-maximal response (EC50) in experiment [1] turned out to be 120 nM; in experiment [2], 23 nM.

As to `O=C(O)c1ccc2nc(C3(O)CC4(CC(OCc5c(-c6c(Cl)cccc6Cl)noc5C5CC5)C4)C3)sc2c1` (single isomer, unassigned) [Example 11-4a, 2-(6-((5-Cyclopropyl-3-(2,6-dichlorophenyl)isoxazol-4-yl)methoxy)-2-hydroxyspiro[3.3]heptan-2-yl)benzo[d]thiazole-6-carboxylic acid], the figures for the concentration giving a half-maximal response (EC50) in experiment [1] and in experiment [2] were 56 nM and 300 nM, respectively.

Take `O=C(O)c1ccc2nc([C@]3(O)CC[C@@H](OCc4c(C5CCC6(CC5)CC6)noc4C4CC4)CC3)sc2c1` [Example 11-3, 2-((1s,4s)-4-((5-Cyclopropyl-3-(spiro[2.5]octan-6-yl)isoxazol-4-yl)methoxy)-1-hydroxycyclohexyl)benzo[d]thiazole-6-carboxylic acid]: the results for the EC50 in experiment [1] and in experiment [2] were 1300 nM and 2100 nM, respectively.

As for `O=C(O)c1cccc([C@]2(O)[C@@H]3CC[C@H]2C[C@H](OCc2c(-c4c(Cl)cccc4Cl)noc2C2CC2)C3)c1` [Example 11-25, 3-((1R,3s,5S,8r)-3-((5-Cyclopropyl-3-(2,6-dichlorophenyl)isoxazol-4-yl)methoxy)-8-hydroxybicyclo[3.2.1]octan-8-yl)benzoic acid], the 50% effective concentration (EC50) in experiment [1] was 79 nM; in experiment [2] it was 430 nM.

`O=C(O)c1ccc([C@]2(O)CC[C@@H](OCc3c(-c4c(Cl)cccc4Cl)noc3C3CC3)CC2)c(F)c1` [Example 11-5, 4-((1s,4s)-4-((5-Cyclopropyl-3-(2,6-dichlorophenyl)isoxazol-4-yl)methoxy)-1-hydroxycyclohexyl)-3-fluorobenzoic acid]: the values for the EC50 in experiment [1] and in experiment [2] were 60 nM and 94 nM, respectively.

On to `O=C(O)c1cc(F)c2nc(C3(O)C[C@H]4CC[C@@H](C3)C4OCc3c(-c4c(Cl)cccc4Cl)noc3C3CC3)sc2c1` (single isomer, unassigned) [Example 11-55], for which the EC50 is 77 nM in experiment [1] and 24 nM in experiment [2].

Turning to `O=C(O)c1cc2sc([C@]3(O)CC[C@@H](OCc4c(-c5ccccc5OC(F)F)noc4C4CC4)CC3)nc2cc1F` [Example 11-19, 2-((1s,4s)-4-((5-Cyclopropyl-3-(2-(difluoromethoxy)phenyl)isoxazol-4-yl)methoxy)-1-hydroxycyclohexyl)-5-fluorobenzo[d]thiazole-6-carboxylic acid], the concentration for a half-maximal effect (EC50) in experiment [1] stood at 570 nM; in experiment [2], 2500 nM.

In the case of `O[C@@]1(c2cnc3nn[nH]c3c2)[C@@H]2CC[C@H]1C[C@H](OCc1c(-c3c(Cl)cccc3Cl)noc1C1CC1)C2` [Example 34, (1R,3s,5S,8r)-8-(1H-[1,2,3]Triazolo[4,5-b]pyridin-6-yl)-3-((5-cyclopropyl-3-(2,6-dichlorophenyl)isoxazol-4-yl)methoxy)bicyclo[3.2.1]octan-8-ol], the EC50 in experiment [1] stood at 4.1 nM; in experiment [2], 5.3 nM.

On to `CC(C)(O)c1cc(F)c2nc([C@]3(O)CC[C@@H](OCc4c(-c5c(Cl)cncc5Cl)noc4C4CC4)CC3)sc2c1` [Example 20, (1s,4s)-4-((5-Cyclopropyl-3-(3,5-dichloropyridin-4-yl)isoxazol-4-yl)methoxy)-1-(4-fluoro-6-(2-hydroxypropan-2-yl)benzo[d]thiazol-2-yl)cyclohexanol], for which the EC50 in experiment [1] was 150 nM; in experiment [2] it was 200 nM.

Usually EC50 stands for the concentration that produces a half-maximal response.
